# Results taken from patent US10358469B2, “Methods and pharmaceutical compositions for the treatment of cancer” (INSERM (INSTITUT NATIONAL DE LA SANTÉ ET DE LA RECHERCHE …, priority 2014, dated 2019).
# How the values were obtained:
# [1] = test system: human triple-negative breast cancer xenograft PDX01; assay: Triple-negative breast cancer patient-derived xenograft PDX01 in nude mice; type: in vivo; conditions: 2.4 mg/kg i.p., 7 daily injections, FIG. 8B
# Protocol: Breast cancer fragments were obtained from patients at the time of surgery, with informed written patient consent. After imaging-guided human tumor biopsies had been performed, fragments of 30 to 60 mm^3 were subcutaneously grafted in 6-week-old NMRI-nude mice (Centre-Elevage-Janvier, France), under xylasin (10 mg/kg)/ketamin (100 mg/kg) anesthesia. Mice were maintained in specific pathogen-free animal housing (Institut Universitaire d'Hematologie) and received estrogen (17 mg/mL) diluted in drinking water. Xenografts were characterized and subsequently subcutaneously transplanted from mouse to mouse. […] Two human triple-negative breast cancer (HBC) xenografts models were used in our experiments (PDX01 and PDX02). […] Following transplantation (n=6 per model) tumor growth was assessed by measuring tumor size in two dimension using a Vernier caliper. Tumor volume was calculated using the formula [3.14×long axis×short axis×short axis]/6 (Kjonniksen et al., 1989). […] Mice were weighted and the tumor size was measured by a caliper and recorded daily. Fourteen days after beginning of the treatment mice were sacrificed. The tumors, kidney, lungs, heart, liver, pancreas and spleen were taken and fixed. Paraffin-embedded sections were prepared and stained with hematoxylin and eosin for histological analysis.
# [2] = test system: leukemic cells isolated from hMRP8-PML/RARα transgenic mice; assay: Acute promyelocytic leukemia (APL) mouse model, survival; type: in vivo
# Protocol: FIG. 9: Antp-AAC-11-LZ (363-399) peptide treatment of leukemic mice protects against disease progression. Mice were challenged with 10^4 leukemic cells isolated from hMRP8-PML/RARα transgenic mice, allowed to engraft for 10 d, and were then injected intraperitonaly each day for 7 consecutive days with Antp-AAC-11-LZ (363-399) peptide (1.8 mg/kg) or vehicle (normal saline solution), or subcutaneously implanted with a 21-d release pellet containing 5 mg ATRA (n=6 for each treatment). Mice were monitored for survival.
# We use an established in vivo APL model based on syngenic grafts of leukemic blasts from hMRP8-PML/RARα transgenic mice, as described by Brown et al. (Brown et al., 1997). This model mimics human APL, both in its biological characteristics and its response to conventional therapeutic drugs such as all-trans retinoic acid (ATRA) and 100% of the mice die of the disease (Brown et al., 1997; Kogan et al., 2000; Lallemand-Breitenbach et al., 1999). […] leukemic cells isolated from bone marrow, spleen, or lymph nodes of leukemic hMRP8-PML/RARα transgenic mice (Brown et al., 1997) were injected into the tail vein of 6-7 week old syngeneic FVB/N mice. Establishment of leukemia was assessed by the appearance of high leukocyte and low platelet counts at around day 8 (Brown et al., 1997). Ten days after transplantation, mice implanted with leukemic cells were randomly assigned to either type of treatment (n=6). Antp-AAC-11-LZ (363-399) peptide (1.8 mg/kg) or vehicle (normal saline solution) was injected intraperitonaly each day for 7 consecutive days. Retinoic acid was administrated by subcutaneous implantation of a 21-d release pellet containing 5 mg ATRA (Innovative Research of America). Mice were then monitored for survival.
# HaCat cells = assay: Propidium iodide (PI) uptake, flow cytometry, HaCat cells; type: cell-based; conditions: 10 μM, absence of 10% FBS, FIG. 4A
# Protocol: (§1) FIG. 4: Antp-AAC-11-LZ (363-399) peptide induced necrotic cell death under low serum conditions. (A) SeAx or HaCat cells cultured in the absence of 10% FBS were left untreated or treated with 4 μM or 10 μM, respectively, of the Antp-AAC-11-LZ (363-399) peptide for the indicated durations. Cells were then analyzed by flow cytometry for PI staining. The results represent the mean number of PI-positive cells±S.D. from at least three independent experiments. (B) A549 and HaCat cells were plated at a densities of 4.5×10^3 in 96 well plates (100 μL total volume per well) and allowed to attach overnight in a 37° C. incubator (5% CO2). Media was removed from cells and replaced with media containing 10 μM Antp-AAC-11-LZ (363-399) peptide (100 μL total volume per well) peptide and the plates were incubated for the indicated durations. Lactate dehydrogenase (LDH) activity released in the culture medium was then assessed and data expressed as a percentage of the maximal level (Max) of LDH activity determined after total cell lysis±S.D. from at least three independent experiments.
# Cell death was evaluated upon staining with propidium iodide and flow cytometry analysis.
# We therefore evaluated necrotic cell death of SeAx cells treated with the Antp-AAC-11-LZ (363-399) peptide by PI uptake assay following different time exposures. […]
# A549 cells = assay: Lactate dehydrogenase (LDH) release, A549 cells; type: cell-based, human; conditions: 10 μM
# Protocol: as §1, with “(A)” for “FIG. 4: Antp-AAC-11-LZ (363-399) peptide induced necrotic cell death under low serum conditions. (A)”
# (A) SeAx cultured in the absence of 10% FBS were left untreated or treated with 4 μM of the indicated Antp-AAC-11-LZ peptides for various times. Cells were then analyzed by flow cytometry for PI staining. The results represent the mean number of PI-positive cells±S.D. (B) A549 cells were plated at a densities of 4.5×10^3 in 96 well plates (100 μL total volume per well) and allowed to attach overnight in a 37° C. incubator (5% CO2). Media was removed from cells and replaced with media containing the indicated Antp-AAC-11-LZ peptides at 10 μM (100 μL total volume per well) peptide and the plates were incubated for the indicated durations. Lactate dehydrogenase (LDH) activity released in the culture medium was then assessed and data expressed as a percentage of the maximal level (Max) of LDH activity determined after total cell lysis±S.D.
substance,measurement,setting,value
Ac-RQIKIWFKKQNRRMKWKKAKLNAEKLKDFKIRLQYFARGLQVYIRQLRLALQGKT-NH2 [Antp-AAC-11-LZ (363-399)],tumor size versus vehicle,[1],significantly smaller tumors
same,mice surviving up to 67 d,[2]; n=6 per treatment,Four of 6
same,mice surviving up to 76 d,[2]; n=6 per treatment,2
same,mean survival time,"[2]; peptide 1.8 mg/kg i.p. daily for 7 days, ATRA 5 mg 21-d release pellet s.c., from day 10 after graft, n=6",68.5 days
same,loss of cell membrane integrity (PI uptake) in nonmalignant cells,HaCat cells,much decreased loss of cell membrane integrity
same,LDH release,"A549 cells; 5 minutes, relative to maximal LDH release (0.8% Triton X-100)",~40%
same,LDH release,"A549 cells; 1 hour, compared to maximum LDH release (0.8% Triton X-100)",80%
same,"LDH release into cell supernatants, in words",A549 cells; time course,drastic increase
